For one data set, the target named is T1, PLR_Tp1 (Thuja plicata, UniProt Q9LD14).
T1 sequence (Q9LD14 1-313): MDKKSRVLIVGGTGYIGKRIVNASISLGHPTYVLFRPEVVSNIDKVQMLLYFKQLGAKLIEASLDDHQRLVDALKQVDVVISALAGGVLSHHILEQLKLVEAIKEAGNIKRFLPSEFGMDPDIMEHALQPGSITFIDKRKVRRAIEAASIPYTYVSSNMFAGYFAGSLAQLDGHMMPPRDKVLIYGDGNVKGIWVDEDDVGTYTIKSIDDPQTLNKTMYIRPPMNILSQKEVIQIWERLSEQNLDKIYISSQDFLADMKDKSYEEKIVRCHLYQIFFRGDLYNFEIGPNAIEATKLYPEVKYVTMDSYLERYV
Conditions: Kim et al., manuscript in preparation (34), cited from earlier work.

The target of data set [1] is T2, LtPLRh1 (LtCES1) (Larrea tridentata, UniProt V5NR15). Put plainly: LtPLRh1 (LtCES1) chavicol/eugenol synthase assays, kinetic parameters for monolignol ester substrates. In kind it is biochemical. The note with it: for Km values / Vmax values: PLR homologue in the creosote bush; for Vmax / kcat: Table 2, LtPLRh1 apparent. The procedure: (§1) Enzymatic assays. All assays were performed at 30° C. in 250 μl of the corresponding buffered solutions (at 100 mM buffer concentration) containing 0.5 μg […]1) Rh1 and 1.0 mM NADPH, and were terminated by addition of 25 μl glacial acetic acid and freezing. […] Assays were carried out for 1 to 120 min; controls included both boiled enzyme extracts and omission of substrates. Kinetic parameters (Km and Vmax): Three sets of triplicate assays were carried out for 5 min in Bis-Tris propane buffer at pH 7.55, and contained different concentrations of p-coumaryl acetate (48), p-coumaryl coumarate (50) or coniferyl acetate (49) (3.2 μM-1 mM).

Data set [2] concerns the target T2, LtPLRh1 (LtCES1). As to the kind of experiment: In vitro test of LtPLRh1 with PLR, PCBER and IFR substrates. In kind it is biochemical.
A further data set has as its target T3, ObEGS1 (Ocimum basilicum, UniProt Q15GI4).
T3 sequence (Q15GI4 1-314): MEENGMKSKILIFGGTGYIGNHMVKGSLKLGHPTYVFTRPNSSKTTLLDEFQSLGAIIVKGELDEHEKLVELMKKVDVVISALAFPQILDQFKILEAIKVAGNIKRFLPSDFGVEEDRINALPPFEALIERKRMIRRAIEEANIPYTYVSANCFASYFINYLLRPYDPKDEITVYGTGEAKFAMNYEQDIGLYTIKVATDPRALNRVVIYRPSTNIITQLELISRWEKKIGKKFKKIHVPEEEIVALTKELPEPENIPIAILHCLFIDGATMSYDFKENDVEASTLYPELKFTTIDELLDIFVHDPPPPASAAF
Conditions: cited from earlier work; for Vmax / kcat: ObEGS1.

Another data set has as its target T4, PhIGS1 (Petunia hybrida, UniProt Q15GI3).
T4 sequence (Q15GI3 1-323): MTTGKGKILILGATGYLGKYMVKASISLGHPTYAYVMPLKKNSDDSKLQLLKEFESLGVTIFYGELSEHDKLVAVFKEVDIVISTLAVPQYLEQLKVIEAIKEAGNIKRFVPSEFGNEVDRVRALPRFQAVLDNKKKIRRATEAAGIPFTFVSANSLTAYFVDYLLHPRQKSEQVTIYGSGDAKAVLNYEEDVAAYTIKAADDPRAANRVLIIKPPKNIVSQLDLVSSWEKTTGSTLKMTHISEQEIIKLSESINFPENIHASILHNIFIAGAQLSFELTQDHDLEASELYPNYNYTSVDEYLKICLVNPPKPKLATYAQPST
The note with it: cited from earlier work; for Vmax / kcat: PhIGS1.

In data set [3] the test system is basil CS/ES and petunia IES. The note with it: range over basil CS/ES and petunia IES, cited from earlier work.
Substrate in data set [4]: CC(=O)OC/C=C/c1ccc(O)cc1
As to the kind of experiment: LtPLRh1 (LtCES1) chavicol/eugenol synthase assays, kinetic parameters for monolignol ester substrates. In kind it is biochemical, Larrea tridentata. Conditions: other: Table 1, Bis-Tris propane pH 7.55, 30° C., 1.0 mM NADPH, apparent values. As to the method: as §1

Substrate in data set [5]: COc1cc(/C=C/COC(C)=O)ccc1O
The description is as above. In kind it is biochemical, Larrea tridentata. Conditions: other: Table 1, Bis-Tris propane pH 7.55, 30° C., 1.0 mM NADPH, apparent values. The procedure:
as §1

Substrate in data set [6]: O=C(/C=C/c1ccc(O)cc1)OC/C=C/c1ccc(O)cc1
The data set is described as above. The format is biochemical, Larrea tridentata. The note with it: other: Table 1, Bis-Tris propane pH 7.55, 30° C., 1.0 mM NADPH, apparent values. The procedure: as §1

The nature of data set [7]: Characterisation of recombinant LtPLRh1: pH optimum and efficiency versus homologues. In kind it is biochemical, Larrea tridentata. The note with it: from previously reported kinetic parameters (26). The procedure:
Enzymatic assays. All assays were performed at 30° C. in 250 μl of the corresponding buffered solutions (at 100 mM buffer concentration) containing 0.5 μg LtPL LtPLRh1 (LtCES1) Rh1 and 1.0 mM NADPH, and were terminated by addition of 25 μl glacial acetic acid and freezing. Chavicol/eugenol synthase activity assays were individually performed in Bis-Tris propane buffer (pH 7.55) containing 0.4 mM p-coumaryl coumarate (50), p-coumaryl acetate (48) or coniferyl acetate (49). Assays were carried out for 1 to 120 min; controls included both boiled enzyme extracts and omission of substrates.
Kinetic parameters (Km and Vmax): Three sets of triplicate assays were carried out for 5 min in Bis-Tris propane buffer at pH 7.55, and contained different concentrations of p-coumaryl acetate (48), p-coumaryl coumarate (50) or coniferyl acetate (49) (3.2 μM-1 mM).

Entries after “also recorded” stand apart in the source; their conditions may differ. Where two headings read alike, the source gives them in different places.

For orientation: kcat means the maximal rate divided by the concentration of active sites. Broadly, the Km is the concentration of substrate that gives half-maximal velocity. Usually kcat/Km stands for the second-order rate constant that governs catalysis at low substrate concentration.

As to `COc1cc([C@H]2OC[C@@H]3C(c4cc(OC)c(O)c(OC)c4)OC[C@H]23)ccc1O` (some centres unmarked) [medioresinol (69), medioresinol], the “PLR-catalyzed reduction (serves as substrate)” value (shortened to “PLR-catalyzed reduction”) on PLR_Tp1 was “uses several p-hydroxylated phenylpropanoid substrates”; on PLR_Tp1 (listed as Medioresinol (69)) it was “additional PLR substrates”.

Regarding `CC(=O)OC/C=C/c1ccc(O)cc1` [p-coumaryl acetate (48), p-coumaryl acetate], at LtPLRh1 (LtCES1) [1], the Km values result is “a few hundred”, the Vmax values result was “a few hundred”, the Vmax is on record as 200 pkat/μg and the kcat came out at 6.80 s⁻¹.

As to `O=c1c(-c2ccc(O)cc2)coc2cc(O)cc(O)c12` [genistein (73), genistein], the “activity of LtPLRh1 towards the compound as substrate” value (from here on “activity … as substrate”) at LtPLRh1 (LtCES1) [2] is given as “at best marginal activity; also recorded: do not serve as substrates”.

For `C[C@@H]1[C@H](C)[C@@H](c2ccc(O)cc2)O[C@@H]1c1ccc(O)cc1` [larreatricin (62), larreatricin], at LtPLRh1 (LtCES1) [2], the “activity … as substrate” value is recorded as “at best marginal activity”.

With `c1cc2c(cc1[C@H]1OC[C@H]3[C@@H]1CO[C@@H]3c1ccc3c(c1)OCO3)OCO2` [sesamin (71), sesamin], on PLR_Tp1, the “PLR-catalyzed reduction” value was “fails to reduce; also recorded: does not undergo PLR-catalyzed reduction”.

As for `COc1ccc(-c2coc3cc(O)cc(O)c3c2=O)cc1` [biochanin A (74), biochanin A], at LtPLRh1 (LtCES1) [2], the “activity … as substrate” value was “at best marginal activity; also recorded: do not serve as substrates”.

Take `C/C=C/c1cc(OC)c2c(c1)[C@H](C)[C@@H](c1ccc(O)c(OC)c1)O2` [licarin A (64), licarin A]: the “activity … as substrate” value at LtPLRh1 (LtCES1) [2] is given as “at best marginal activity”.

With `COc1cc(C2Oc3c(OC)cc(/C=C/CO)cc3C2CO)ccc1O` (centres unmarked) [dehydrodiconiferyl alcohol (56), dehydrodiconiferyl alcohol], the “activity … as substrate” value on LtPLRh1 (LtCES1) [2] is recorded as “at best marginal activity”.

Regarding `COc1cc(/C=C/COC(C)=O)ccc1O` [coniferyl acetate (49), coniferyl acetate], on LtPLRh1 (LtCES1) [1], the “efficiency of reduction by LtPLRh1 relative to reported homologues in basil and petunia” value was above 100 fold. In addition, the Km values entry on LtPLRh1 (LtCES1) [1] is given as “a few hundred”. The Vmax values result on LtPLRh1 (LtCES1) [1] is “a few hundred”. In addition, the Vmax at LtPLRh1 (LtCES1) [1] is recorded as 190 pkat/μg; on ObEGS1 (Table 1) it was 20 pkat μg^−1 prot; on ObEGS1 (Table 2) it was 20 pkat/μg; on PhIGS1 (Table 1), 7 pkat μg^−1 prot; on PhIGS1 (Table 2), 7 pkat/μg; in data set [3], 7-20 pkat μg^−1 protein. Also, the kcat on LtPLRh1 (LtCES1) [1] is 6.46 s⁻¹; at ObEGS1 (Table 1), 0.7 s⁻¹; on ObEGS1 (Table 2), 0.7 s⁻¹; at PhIGS1 (Table 1), 0.3 s⁻¹; on PhIGS1 (Table 2), 0.3 s⁻¹. Moreover, the Km is 5100 µM on ObEGS1 (Table 1, ObEGS1, Koeduka et al. 2006); 5100 µM on ObEGS1 (Table 2, ObEGS1, as reported in (26)); 1600 µM on PhIGS1 (Table 1, PhIGS1, Koeduka et al. 2006); 1600 µM on PhIGS1 (Table 2, PhIGS1, as reported in (26)); 1600 to 5100 µM in data set [3] (read-out: substrate affinities (Km)).

For the molecule pinoresinol [pinoresinol (54)], on LtPLRh1 (LtCES1) [2], the “activity … as substrate” value is “at best marginal activity”. Also, the “PLR-catalyzed reduction” value on PLR_Tp1 is on record as “uses several p-hydroxylated phenylpropanoid substrates”.

Turning to `COc1cc([C@H]2OC[C@H]3[C@@H]2CO[C@@H]3c2cc(OC)c(O)c(OC)c2)cc(OC)c1O` [syringaresinol (70), syringaresinol], the “PLR-catalyzed reduction” value on PLR_Tp1 is recorded as “uses several p-hydroxylated phenylpropanoid substrates; also recorded: additional PLR substrates”.

As to `COc1cc([C@H]2O[C@@H](c3ccc(O)c(OC)c3)[C@H](C)[C@@H]2C)ccc1O` [nectandrin B (72), nectandrin B], the “activity … as substrate” value on LtPLRh1 (LtCES1) [2] is reported as “at best marginal activity; also recorded: do not serve as substrates”.

On to `O=C(/C=C/c1ccc(O)cc1)OC/C=C/c1ccc(O)cc1` [p-coumaryl coumarate (50), p-coumaryl coumarate], for which, at LtPLRh1 (LtCES1) [1], the Km values entry is “a few hundred”, the Vmax values entry is on record as “a few hundred”, the Vmax is on record as 75 pkat/μg and the kcat came out at 2.55 s⁻¹.

B1: LtPLRh1 (LtCES1) (Larrea tridentata) (protein)
chain: MAQKSKILIIGGTGYIGKFVVEASAKAGRPTFALVRESTVSDPVKGKLIANFKNLGVNILHGDLNDHESLVKAIKKVDVVISTVGNFQIADQVKIIAAIKAAGNVKRFFPSEFGNDVDRTHAVEPAKSTFEMKAQLRRTIEAEGIPYTYVSSNFFAGYFLPVLGQVGVTAPPRDKVTILGDGNQKAVFNKEDDIGTYTIRAADDPRTLNKILYIRPPRNTYSMNELVALWEKKIGKTLEKTYVPEEQLLKNIQEAEIPWNVVLAINHSVFVKGDHTNFAIKPSFGVEASELYPDVKYTTVEEYLSQFV
With B1, in data set [4], the Km worked out at 350 µM, the Vmax worked out at 12 µmol/min/mg, the kcat came to 6.8 s⁻¹ and the kcat/Km stood at 19500 M⁻¹ s⁻¹. In addition, in data set [5], the Km worked out at 290 µM, the Vmax stood at 11.4 µmol/min/mg, the kcat amounted to 6.46 s⁻¹ and the kcat/Km worked out at 22000 M⁻¹ s⁻¹. In [6], the Michaelis constant (Km) turned out to be 210 µM, the Vmax was determined as 4.5 µmol/min/mg, the kcat was determined as 2.55 s⁻¹ and the kcat/Km was determined as 12000 M⁻¹ s⁻¹.

B2: LtPLRh1: pinoresinol-lariciresinol reductase homologue from Larrea tridentata, chavicol/eugenol synthase, SEQ ID NO:2, recombinant 34 kDa (protein)
chain: MAQKSKILIIGGTGYIGKFVVEASAKAGRPTFALVRESTVSDPVKGKLIANFKNLGVNILHGDLNDHESLVKAIKKVDVVISTVGNFQIADQVKIIAAIKAAGNVKRFFPSEFGNDVDRTHAVEPAKSTFEMKAQLRRTIEAEGIPYTYVSSNFFAGYFLPVLGQVGVTAPPRDKVTILGDGNQKAVFNKEDDIGTYTIRAADDPRTLNKILYIRPPRNTYSMNELVALWEKKIGKTLEKTYVPEEQLLKNIQEAEIPWNVVLAINHSVFVKGDHTNFAIKPSFGVEASELYPDVKYTTVEEYLSQFV
modifications: Larrea tridentate
As for B2, the “efficiency/activity relative to the enzymes reported in basil and petunia” value in [7] is recorded as above 100 fold; in [7] (listed as LtPLRh1 (LtCES1)) it was “over 100 fold”.
